Among the test systems are HT-29; SK-MEL-28; MDA-MB-435; SF-539; T47D; CCRF-CEM; KM12; SN12C; NCI-H522; SNB-19; HCT-15; OVCAR-5; MOLT-4; UO-31; RPMI-8226; MDA-MB-231; SF-268; OVCAR-3; MDA-N; HCC 2998.
Test in all cases: NCI-60 cell line screen, 48 h

Molecules are shown by their SMILES.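 Step 1: Grow cells in 96-well plates. Step 2: Expose to compound for 48 hours at 5 concentrations. Step 3: Interpolate endpoints linearly; if unreached, use highest concentration. GI50 = concentration required for 50% inhibition of growth.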 The source made the active and inactive calls. Rule as the data show it: active = GI50 up to about 1.1 µM and inactive = higher.

The text below walks through data of ChEMBL document CHEMBL1201862, “PubChem BioAssay data set” (2004).

As for `Cn1c(=O)c2nc(SCc3ccccn3)[nH]c2n(C)c1=S`, the GI50 is > 100 µM (inactive) in the test on HT-29; > 100 µM (inactive) in the test with SK-MEL-28; > 100 µM (inactive) with MDA-MB-435; 34.1 µM (inactive) in the test with SF-539; 66.8 µM (inactive) in the test with T47D; > 100 µM (inactive) with CCRF-CEM. The GI50 in the test on KM12 is > 100 µM (inactive); in the test on SN12C it was 74.1 µM (inactive); in the test on NCI-H522, > 100 µM (inactive); in the test on SNB-19 it was 56 µM (inactive); with HCT-15, over 100 µM; in the test with OVCAR-5, > 100 µM (inactive). In addition, the GI50 was > 100 µM (inactive) in the test on MOLT-4; 70.5 µM (inactive) in the test with UO-31; > 100 µM (inactive) in the test with RPMI-8226; 76.6 µM (inactive) in the test with MDA-MB-231; > 100 µM (inactive) in the test on SF-268; > 100 µM (inactive) in the test on OVCAR-3. For the same molecule, in the test with MDA-N, the GI50 was > 100 µM (inactive).

Turning to `c1cc(NNc2cccc(-c3nnn[nH]3)c2)cc(-c2nnn[nH]2)c1`, the GI50 in the test on HT-29, with SK-MEL-28, in the test with MDA-MB-435, in the test with SF-539, in the test with T47D and with KM12 was > 100 µM (inactive) each time. Also, the GI50 is > 100 µM (inactive) in the test with SN12C; > 100 µM (inactive) with NCI-H522; > 100 µM (inactive) in the test with SNB-19; over 100 µM in the test on HCT-15; > 100 µM (inactive) in the test with OVCAR-5; > 100 µM (inactive) in the test with UO-31. In addition, the GI50 in the test on RPMI-8226, in the test with MDA-MB-231, in the test with SF-268, in the test on OVCAR-3 and in the test with MDA-N was > 100 µM (inactive) throughout.

In the case of `Cc1cc(C)nc(NS(=O)(=O)c2ccc(NC(=O)c3cccc4c(NNc5ccc(S(=O)(=O)N=C(N)N)cc5)c5ccccc5nc34)cc2)n1`, the GI50 in the test with HT-29, in the test with MDA-MB-435, in the test with SF-539, in the test with T47D, in the test with CCRF-CEM and in the test on KM12 was > 50 µM (inactive) each time. For the same molecule, the GI50 in the test with SN12C is > 50 µM (inactive); with HCC 2998, > 50 µM (inactive); with NCI-H522, > 50 µM (inactive); in the test with SNB-19 it was > 50 µM (inactive); in the test on HCT-15 it was over 50 µM; with MOLT-4, > 50 µM (inactive). Moreover, the GI50 in the test with UO-31 was 48.1 µM (inactive); with RPMI-8226, > 50 µM (inactive); in the test on MDA-MB-231, > 50 µM (inactive); with SF-268, > 50 µM (inactive); with OVCAR-3, > 50 µM (inactive); with MDA-N, > 50 µM (inactive).

As for `CN(c1ccccc1)S(=O)(=O)c1ccc([N+](=O)[O-])cc1`, the GI50 with HT-29 was 69.5 µM (inactive); in the test with SK-MEL-28, > 100 µM (inactive); in the test with MDA-MB-435, > 100 µM (inactive); in the test with SF-539 it was > 100 µM (inactive); in the test on T47D, > 100 µM (inactive); in the test with KM12, 46.5 µM (inactive). Further, the GI50 in the test with SN12C is > 100 µM (inactive); in the test on NCI-H522, > 100 µM (inactive); with SNB-19 it was > 100 µM (inactive); in the test with HCT-15 it was over 100 µM; with OVCAR-5 it was > 100 µM (inactive); with UO-31, > 100 µM (inactive). The GI50 in the test with RPMI-8226 was 61.5 µM (inactive); in the test with MDA-MB-231 it was 79.3 µM (inactive); in the test on SF-268 it was > 100 µM (inactive); in the test on OVCAR-3 it was > 100 µM (inactive); in the test with MDA-N, > 100 µM (inactive).

For the molecule `O=C1N2CCc3c([nH]c4ccccc34)C23CC2CCCC12S3` (stereo unspecified), the GI50 in the test on HT-29 is 18.4 µM (inactive); in the test with SK-MEL-28 it was 45.3 µM (inactive); in the test on MDA-MB-435, 33.7 µM (inactive); with SF-539, > 50 µM (inactive); with T47D, 20.5 µM (inactive); with KM12, 25.4 µM (inactive). Further, the GI50 is 20.6 µM (inactive) in the test with SN12C; > 50 µM (inactive) with NCI-H522; > 50 µM (inactive) in the test with SNB-19; 18.1 µM with HCT-15; > 50 µM (inactive) with OVCAR-5; 25.8 µM (inactive) in the test with MOLT-4. Besides, the GI50 with UO-31 is 32 µM (inactive); in the test on RPMI-8226 it was 27.4 µM (inactive); in the test with MDA-MB-231, > 50 µM (inactive); in the test with SF-268, 36.1 µM (inactive); in the test on OVCAR-3, 39.4 µM (inactive); with MDA-N, 27.9 µM (inactive).

Turning to `C1=N\c2ccc(cc2)-c2ccc(cc2)/N=C\c2ccc(cc2)OCc2cccc(n2)COc2ccc/1cc2`, the GI50 is > 100 µM (inactive) in the test with HT-29; > 100 µM (inactive) in the test with SK-MEL-28; > 100 µM (inactive) in the test on MDA-MB-435; > 100 µM (inactive) with SF-539; > 100 µM (inactive) in the test with T47D; 97.7 µM (inactive) in the test with CCRF-CEM. Further, the GI50 in the test with KM12 is > 100 µM (inactive); in the test on SN12C, > 100 µM (inactive); with NCI-H522, 34.5 µM (inactive); in the test with SNB-19, 38.9 µM (inactive); with HCT-15 it was over 100 µM; with OVCAR-5 it was > 100 µM (inactive). Besides, the GI50 with MOLT-4 is 85.3 µM (inactive); in the test on UO-31, > 100 µM (inactive); in the test on RPMI-8226, > 100 µM (inactive); in the test on MDA-MB-231 it was > 100 µM (inactive); with SF-268, 16.1 µM (inactive); with OVCAR-3, > 100 µM (inactive). In the test on MDA-N, the GI50 was > 100 µM (inactive).

For `CC(C)(C)C1CCC(=O)/C(=C/CC2CC(=O)N(c3ccccc3)C(=O)C2)C1` (stereo unspecified), the GI50 with HT-29 was 19.8 µM (inactive); in the test with SK-MEL-28, 21.2 µM (inactive); in the test with MDA-MB-435 it was 23.8 µM (inactive); in the test on T47D, 21.8 µM (inactive); in the test on KM12, 18.5 µM (inactive); in the test with SN12C, 17.5 µM (inactive). Further, the GI50 in the test with HCC 2998 is 23.8 µM (inactive); with NCI-H522 it was 18.9 µM (inactive); in the test with SNB-19 it was 22 µM (inactive); in the test with HCT-15 it was 15.5 µM; with OVCAR-5 it was 17.4 µM (inactive); in the test on MOLT-4 it was 34.1 µM (inactive). Moreover, the GI50 in the test with UO-31 was 16.6 µM (inactive); with RPMI-8226 it was 18.7 µM (inactive); in the test with MDA-MB-231, 44 µM (inactive); in the test with SF-268, 20.1 µM (inactive); in the test with OVCAR-3, 23.1 µM (inactive); with MDA-N, 22.6 µM (inactive).

For `CC(=O)NC(C)(C)C1CC=C(C)/C(=N\O)C1` (stereo unspecified), the GI50 with HT-29, with SK-MEL-28, with MDA-MB-435, with SF-539, in the test with T47D and in the test with CCRF-CEM was > 100 µM (inactive) in each case. The GI50 in the test on KM12 is > 100 µM (inactive); in the test with SN12C, > 100 µM (inactive); in the test with HCC 2998, > 100 µM (inactive); with NCI-H522, > 100 µM (inactive); with SNB-19 it was > 100 µM (inactive); with HCT-15, over 100 µM. The GI50 in the test on OVCAR-5, in the test with MOLT-4, in the test on UO-31, in the test with MDA-MB-231, in the test with SF-268 and in the test with OVCAR-3 was > 100 µM (inactive) throughout. Moreover, in the test on MDA-N, the GI50 was > 100 µM (inactive).

For the molecule `C=CCN1C[C@@H](C)N([C@@H](c2ccccc2)c2ccc(C(=O)N(CC)CC)cc2)C[C@@H]1C`, the GI50 in the test with HT-29 is > 100 µM (inactive); in the test on SK-MEL-28 it was > 100 µM (inactive); in the test with MDA-MB-435 it was > 100 µM (inactive); with SF-539, > 100 µM (inactive); in the test with T47D, 65.8 µM (inactive); in the test on KM12, > 100 µM (inactive). Moreover, the GI50 is > 100 µM (inactive) with SN12C; > 100 µM (inactive) in the test on NCI-H522; > 100 µM (inactive) in the test with SNB-19; over 100 µM with HCT-15; > 100 µM (inactive) in the test with OVCAR-5; 33.3 µM (inactive) in the test with MOLT-4. For the same molecule, the GI50 is > 100 µM (inactive) with UO-31; 95.5 µM (inactive) with RPMI-8226; > 100 µM (inactive) in the test on MDA-MB-231; > 100 µM (inactive) in the test on SF-268; > 100 µM (inactive) in the test on OVCAR-3; > 100 µM (inactive) with MDA-N.

As for `COc1ccc(NC(=O)CC(=O)N2N=C(N(c3ccccc3)c3ccccc3)CC2c2ccccc2)cc1` (stereo unspecified), the GI50 in the test on HT-29, in the test with SK-MEL-28, in the test with MDA-MB-435, in the test on SF-539, with T47D and in the test with CCRF-CEM was > 100 µM (inactive) throughout. Besides, the GI50 in the test with KM12 is > 100 µM (inactive); with SN12C, > 100 µM (inactive); in the test with HCC 2998 it was > 100 µM (inactive); with NCI-H522 it was > 100 µM (inactive); in the test on SNB-19, > 100 µM (inactive); with HCT-15, over 100 µM. The GI50 in the test on OVCAR-5, with MOLT-4, with UO-31, with RPMI-8226, with MDA-MB-231 and in the test with SF-268 was > 100 µM (inactive) each time. Also, the GI50 in the test with OVCAR-3 is > 100 µM (inactive).

Regarding `C[n+]1c(/C=C/c2ccc(/C=N/NC(=O)c3ccc(C(=O)N/N=C/c4ccc(/C=C/c5cn6ccccc6[n+]5C)cc4)cc3)cc2)cn2ccccc21`, the GI50 was > 100 µM (inactive) with HT-29; > 100 µM (inactive) with SK-MEL-28; > 100 µM (inactive) in the test on MDA-MB-435; > 100 µM (inactive) in the test on SF-539; > 100 µM (inactive) in the test on T47D; 20 µM (inactive) in the test on CCRF-CEM. In addition, the GI50 in the test on KM12 is > 100 µM (inactive); in the test with SN12C, > 100 µM (inactive); in the test on HCC 2998, > 100 µM (inactive); in the test with SNB-19, > 100 µM (inactive); in the test with HCT-15, over 100 µM; with OVCAR-5, > 100 µM (inactive). In addition, the GI50 in the test with MOLT-4 was 30.9 µM (inactive); with UO-31, > 100 µM (inactive); in the test with RPMI-8226, > 100 µM (inactive); with MDA-MB-231, > 100 µM (inactive); in the test on SF-268, > 100 µM (inactive); in the test on OVCAR-3, > 100 µM (inactive). Moreover, the GI50 with MDA-N was > 100 µM (inactive).
